Results reported in US8765748B2, “Indazolyl, benzimidazolyl, benzotriazolyl substituted indolinone derivatives as kinase inhibitors useful in the treatment of cancer” (University Health Network, priority 2007, dated 2014).
Entries after “also recorded” stand apart in the source; their conditions may differ.

How the values were obtained:
Aurora B = target: T1, Aurora B (Homo sapiens, UniProt Q96GD4); test: Aurora B Inhibition Assay (Z-Lyte); assay type: biochemical; details: 128 μM ATP, 28 nM Aurora B; read-out: Aurora B IC50 Ranges
T1 construct: purchased Invitrogen PV3970
Method: (§1) Aurora B inhibition was determined using the Z-Lyte assay kit from Invitrogen. The assay was performed using the recommended manufacturer's instructions with 128 μM ATP and 28 nM Aurora B (Invitrogen cat #PV3970). The % inhibition values were determined according to the manufacturer's directions and IC50 values were obtained using a non-linear 4 point logistic curve fit (XLfit4, IDBS)

Abl = Abl (Homo sapiens, UniProt P00519); test: Millipore kinase assay, radiolabelled phosphopeptide filter binding, IC50 estimate; assay type: biochemical; parameters: purchased Millipore (assay service); details: estimated from inhibition at three compound concentrations; ATP at the Km
Method: (§2) Kinase assays at Millipore were performed using a radiolabelled phosphopeptide filter binding detection system, in duplicate, at each compound concentration. The ATP substrate concentration in the reactions was at the Km for each enzyme.
(§3) To allow for a more direct comparison of compound inhibition, an IC50 value was estimated from the inhibition determined at three compound concentrations. Several assumptions were made to allow this calculation using a 4 parameter non linear curve fit model, including full inhibition set at 100%, no inhibition set to 0%, and a curve fit parameter set at 1. The inflection point was reported as the estimated IC50.

TRKA = TRKA (Homo sapiens, UniProt P04629); test: as above; assay type: biochemical; parameters: purchased Millipore (assay service); details: estimated from inhibition at three compound concentrations; ATP at the Km
Method: as §2, §3

Ret = Ret (Homo sapiens, UniProt P07949); test: as above; assay type: biochemical; parameters: purchased Millipore (assay service); details: estimated from inhibition at three compound concentrations; ATP at the Km
Method: as §2, §3

Lyn = Lyn (Homo sapiens, UniProt P07948); test: as above; assay type: biochemical; parameters: purchased Millipore (assay service); details: estimated from inhibition at three compound concentrations; ATP at the Km
Chain of Lyn (P07948 whole entry): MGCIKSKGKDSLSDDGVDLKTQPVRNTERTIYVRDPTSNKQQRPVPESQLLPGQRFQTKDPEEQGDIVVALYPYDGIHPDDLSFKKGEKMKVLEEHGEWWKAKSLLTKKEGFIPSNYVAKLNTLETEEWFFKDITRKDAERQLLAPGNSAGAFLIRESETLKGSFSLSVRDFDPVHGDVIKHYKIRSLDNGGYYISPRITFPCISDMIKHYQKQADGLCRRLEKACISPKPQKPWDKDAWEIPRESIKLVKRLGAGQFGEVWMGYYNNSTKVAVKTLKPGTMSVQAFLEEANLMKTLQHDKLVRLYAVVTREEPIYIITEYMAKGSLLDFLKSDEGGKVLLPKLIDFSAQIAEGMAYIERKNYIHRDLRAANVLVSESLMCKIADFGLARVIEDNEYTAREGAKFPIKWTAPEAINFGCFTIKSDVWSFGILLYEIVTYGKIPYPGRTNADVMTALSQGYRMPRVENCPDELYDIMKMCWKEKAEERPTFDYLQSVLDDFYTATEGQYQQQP
Method: as §2, §3

Aurora A = target: T2, Aurora A (Homo sapiens, UniProt O14965); test: Aurora A Inhibition Assay (Z-Lyte); assay type: biochemical; details: 20 μM ATP, 12 nM Aurora A; read-out: Aurora A IC50 Ranges
T2 construct: purchased Invitrogen PV3612
T2 sequence (O14965 1-403): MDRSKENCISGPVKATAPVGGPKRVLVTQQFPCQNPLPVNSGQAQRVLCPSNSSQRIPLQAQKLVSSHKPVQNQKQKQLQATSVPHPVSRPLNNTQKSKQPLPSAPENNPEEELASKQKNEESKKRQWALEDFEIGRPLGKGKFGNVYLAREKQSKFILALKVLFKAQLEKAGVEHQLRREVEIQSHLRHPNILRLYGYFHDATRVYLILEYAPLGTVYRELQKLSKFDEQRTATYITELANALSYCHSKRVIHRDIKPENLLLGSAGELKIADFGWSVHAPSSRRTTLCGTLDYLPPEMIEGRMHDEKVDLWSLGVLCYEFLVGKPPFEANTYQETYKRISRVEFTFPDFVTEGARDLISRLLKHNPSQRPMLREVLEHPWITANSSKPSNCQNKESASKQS
Method: as §1, with “Aurora A” for “Aurora B”, “with 20” for “with 128”, “and 12” for “and 28”, “cat #PV3612).” for “cat #PV3970).”

PLK2 = target: T3, PLK2 (Homo sapiens, UniProt Q9NYY3); test: PLK2 Inhibition Assay (Z-Lyte); assay type: biochemical; details: 10 μM compound; read-out: PLK2 relative inhibition percentage at a dose of 10 μM
T3 construct: purchased Invitrogen PV4204
T3 sequence (Q9NYY3 whole entry): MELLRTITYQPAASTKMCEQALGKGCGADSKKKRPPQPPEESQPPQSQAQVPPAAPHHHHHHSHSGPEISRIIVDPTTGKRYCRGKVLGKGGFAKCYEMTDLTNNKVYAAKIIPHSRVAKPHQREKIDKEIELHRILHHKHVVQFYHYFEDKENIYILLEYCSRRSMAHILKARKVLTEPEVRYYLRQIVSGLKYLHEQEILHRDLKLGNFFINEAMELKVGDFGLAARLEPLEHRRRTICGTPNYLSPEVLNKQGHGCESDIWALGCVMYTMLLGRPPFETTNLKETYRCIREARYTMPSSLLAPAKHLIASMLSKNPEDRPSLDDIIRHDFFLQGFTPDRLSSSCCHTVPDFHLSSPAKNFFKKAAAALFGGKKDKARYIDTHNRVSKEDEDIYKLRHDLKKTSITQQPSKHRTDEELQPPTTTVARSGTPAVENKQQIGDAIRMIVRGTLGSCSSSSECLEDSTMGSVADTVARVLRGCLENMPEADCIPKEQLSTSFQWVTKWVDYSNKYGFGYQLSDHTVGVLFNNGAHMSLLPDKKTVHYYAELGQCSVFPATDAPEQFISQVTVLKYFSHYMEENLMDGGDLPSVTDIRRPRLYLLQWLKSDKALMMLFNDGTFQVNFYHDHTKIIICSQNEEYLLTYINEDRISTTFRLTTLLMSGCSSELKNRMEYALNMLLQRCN
Method: as §1, with “PLK2” for “Aurora B”, “Invitrogen (cat #PV3802).” for “Invitrogen.”, “60” for “128”, “133” for “28”, “#PV4204).” for “#PV3970).”

HUV-EC-C cells = test: In Vitro Angiogenesis Assay (tube formation); assay type: cell-based; details: 4 hr incubation, 8,000 cells per well, FIG. 1
Method: HUV-EC-C cells were obtained from the American Type Culture Collection (ATCC, CRL-1730), and were used at early passage for the assay. The in vitro Angiogenesis Assay Kit (Chemicon) was used according to the manufacturer's recommendation. An ice-cold mixture of ECMatrix was transferred into a precooled 96-well plate. After the matrix solution had solidified (>1 hr incubation at 37° C.), 8,000 cells were mixed with the appropriate inhibitor concentration (in 100 microliters EGM-2) and plated into each well. After incubation at 37° C. for 4 hr, tube formation was inspected. Two methods, pattern recognition and branch point counting, were used to quantify the progression of angiogenesis and expressed as a percentage of the control tube count (FIG. 1).

human PLK4 = target: T4, human PLK4 (Homo sapiens, UniProt O00444); test: PLK4 Inhibition Assay (indirect ELISA); assay type: biochemical; details: 15 μM ATP, 4 nM GST-PLK4; read-out: PLK4 IC50 Ranges
T4 construct: amino terminal GST fusion of residues 1-391 of human PLK4; made in house; host or cells: E. coli
T4 sequence (O00444 1-391): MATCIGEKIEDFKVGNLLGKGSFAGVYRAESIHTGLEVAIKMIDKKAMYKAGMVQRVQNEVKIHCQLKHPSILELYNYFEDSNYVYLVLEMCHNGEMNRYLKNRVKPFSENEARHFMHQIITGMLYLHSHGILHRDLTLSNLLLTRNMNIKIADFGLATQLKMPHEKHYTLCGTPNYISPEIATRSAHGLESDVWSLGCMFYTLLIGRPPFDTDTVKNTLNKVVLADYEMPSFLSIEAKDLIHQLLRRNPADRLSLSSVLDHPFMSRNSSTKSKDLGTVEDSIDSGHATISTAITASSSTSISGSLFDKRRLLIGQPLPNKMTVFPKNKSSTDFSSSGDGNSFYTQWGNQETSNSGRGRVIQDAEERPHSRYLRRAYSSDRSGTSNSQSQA
Summary of the method: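 IC50 values, from 4-point logistic fitting, reflect remaining activity measured by indirect ELISA. Enzyme was GST-PLK4 treated with lambda phosphatase and given a 15-minute pre-incubation with compound before ATP start.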

KDR = target: T5, KDR (Homo sapiens, UniProt P35968); test: Millipore kinase assay, radiolabelled phosphopeptide filter binding, IC50 estimate; assay type: biochemical; details: estimated from inhibition at three compound concentrations; ATP at the Km
T5 construct: purchased Millipore (assay service)
T5 sequence (P35968 20-1356): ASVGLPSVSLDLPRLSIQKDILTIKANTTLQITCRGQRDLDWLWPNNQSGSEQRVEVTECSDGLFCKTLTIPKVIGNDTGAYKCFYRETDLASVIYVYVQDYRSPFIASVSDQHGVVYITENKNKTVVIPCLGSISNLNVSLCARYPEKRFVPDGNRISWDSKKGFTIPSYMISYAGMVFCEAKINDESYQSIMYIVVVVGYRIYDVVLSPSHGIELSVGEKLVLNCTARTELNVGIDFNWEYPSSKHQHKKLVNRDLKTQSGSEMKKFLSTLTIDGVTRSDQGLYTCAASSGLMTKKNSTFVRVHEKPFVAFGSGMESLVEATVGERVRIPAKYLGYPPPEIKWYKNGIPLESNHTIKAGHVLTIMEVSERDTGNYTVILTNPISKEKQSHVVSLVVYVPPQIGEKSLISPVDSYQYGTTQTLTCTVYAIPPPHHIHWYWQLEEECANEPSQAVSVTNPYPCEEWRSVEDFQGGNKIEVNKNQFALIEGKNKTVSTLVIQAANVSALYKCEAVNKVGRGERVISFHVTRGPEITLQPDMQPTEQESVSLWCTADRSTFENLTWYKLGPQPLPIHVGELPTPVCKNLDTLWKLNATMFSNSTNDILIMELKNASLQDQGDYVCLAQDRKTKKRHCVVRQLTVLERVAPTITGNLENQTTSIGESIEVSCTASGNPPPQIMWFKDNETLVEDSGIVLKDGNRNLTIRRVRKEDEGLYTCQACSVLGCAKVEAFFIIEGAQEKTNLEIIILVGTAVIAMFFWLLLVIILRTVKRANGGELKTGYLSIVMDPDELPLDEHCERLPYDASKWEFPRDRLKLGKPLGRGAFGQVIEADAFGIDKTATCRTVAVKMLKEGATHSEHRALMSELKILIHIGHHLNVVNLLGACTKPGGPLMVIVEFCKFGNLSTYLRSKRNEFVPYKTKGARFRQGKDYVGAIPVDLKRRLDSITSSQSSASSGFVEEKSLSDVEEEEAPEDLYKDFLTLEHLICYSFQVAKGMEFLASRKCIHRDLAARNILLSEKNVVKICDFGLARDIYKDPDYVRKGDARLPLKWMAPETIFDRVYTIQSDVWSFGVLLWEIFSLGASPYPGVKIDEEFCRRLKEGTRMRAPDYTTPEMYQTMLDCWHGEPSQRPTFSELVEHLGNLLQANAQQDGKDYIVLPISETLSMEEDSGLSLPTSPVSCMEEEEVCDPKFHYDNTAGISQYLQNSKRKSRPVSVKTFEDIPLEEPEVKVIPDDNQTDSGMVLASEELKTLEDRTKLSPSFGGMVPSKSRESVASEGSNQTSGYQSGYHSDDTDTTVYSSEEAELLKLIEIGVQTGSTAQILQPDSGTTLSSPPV
Method: as §2, §3

PDGFRβ = target: T6, PDGFRβ (Homo sapiens, UniProt P09619); test: as above; assay type: biochemical; details: estimated from inhibition at three compound concentrations; ATP at the Km
T6 construct: purchased Millipore (assay service)
T6 sequence (P09619 33-1106): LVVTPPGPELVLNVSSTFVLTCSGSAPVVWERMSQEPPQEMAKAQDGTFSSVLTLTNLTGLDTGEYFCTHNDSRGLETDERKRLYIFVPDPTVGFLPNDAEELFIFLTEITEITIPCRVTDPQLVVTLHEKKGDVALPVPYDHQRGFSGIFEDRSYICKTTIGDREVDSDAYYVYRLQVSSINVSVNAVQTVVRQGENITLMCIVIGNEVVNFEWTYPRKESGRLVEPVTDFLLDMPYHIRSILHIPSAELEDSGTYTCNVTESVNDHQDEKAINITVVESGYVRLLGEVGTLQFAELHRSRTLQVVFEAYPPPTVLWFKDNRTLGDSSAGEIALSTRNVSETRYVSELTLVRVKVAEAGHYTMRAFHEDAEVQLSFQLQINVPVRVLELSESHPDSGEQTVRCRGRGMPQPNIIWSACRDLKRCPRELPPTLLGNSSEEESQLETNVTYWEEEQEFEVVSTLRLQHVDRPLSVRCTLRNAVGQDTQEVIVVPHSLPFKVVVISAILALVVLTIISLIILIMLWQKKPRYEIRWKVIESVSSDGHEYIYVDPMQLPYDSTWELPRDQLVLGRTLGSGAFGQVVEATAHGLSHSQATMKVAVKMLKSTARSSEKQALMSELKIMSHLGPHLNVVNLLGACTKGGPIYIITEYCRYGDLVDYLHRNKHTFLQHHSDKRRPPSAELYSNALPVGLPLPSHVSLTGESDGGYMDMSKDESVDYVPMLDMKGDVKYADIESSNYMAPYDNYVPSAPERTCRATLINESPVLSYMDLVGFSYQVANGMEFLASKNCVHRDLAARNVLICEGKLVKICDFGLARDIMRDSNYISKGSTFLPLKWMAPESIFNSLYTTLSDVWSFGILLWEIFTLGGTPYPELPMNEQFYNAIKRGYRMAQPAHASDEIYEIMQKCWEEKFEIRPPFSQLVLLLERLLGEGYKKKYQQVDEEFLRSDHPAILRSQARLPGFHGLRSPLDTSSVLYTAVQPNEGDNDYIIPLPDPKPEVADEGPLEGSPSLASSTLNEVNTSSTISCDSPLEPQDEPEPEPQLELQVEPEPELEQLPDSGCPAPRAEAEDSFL
Method: as §2, §3

FGFR1 = test: as above; assay type: biochemical; details: estimated from inhibition at three compound concentrations; ATP at the Km
Method: as §2, §3

FLT-1 = target: T7, FLT-1 (Homo sapiens, UniProt P17948); test: as above; assay type: biochemical; details: estimated from inhibition at three compound concentrations; ATP at the Km
T7 construct: purchased Millipore (assay service)
T7 sequence (P17948 27-1338): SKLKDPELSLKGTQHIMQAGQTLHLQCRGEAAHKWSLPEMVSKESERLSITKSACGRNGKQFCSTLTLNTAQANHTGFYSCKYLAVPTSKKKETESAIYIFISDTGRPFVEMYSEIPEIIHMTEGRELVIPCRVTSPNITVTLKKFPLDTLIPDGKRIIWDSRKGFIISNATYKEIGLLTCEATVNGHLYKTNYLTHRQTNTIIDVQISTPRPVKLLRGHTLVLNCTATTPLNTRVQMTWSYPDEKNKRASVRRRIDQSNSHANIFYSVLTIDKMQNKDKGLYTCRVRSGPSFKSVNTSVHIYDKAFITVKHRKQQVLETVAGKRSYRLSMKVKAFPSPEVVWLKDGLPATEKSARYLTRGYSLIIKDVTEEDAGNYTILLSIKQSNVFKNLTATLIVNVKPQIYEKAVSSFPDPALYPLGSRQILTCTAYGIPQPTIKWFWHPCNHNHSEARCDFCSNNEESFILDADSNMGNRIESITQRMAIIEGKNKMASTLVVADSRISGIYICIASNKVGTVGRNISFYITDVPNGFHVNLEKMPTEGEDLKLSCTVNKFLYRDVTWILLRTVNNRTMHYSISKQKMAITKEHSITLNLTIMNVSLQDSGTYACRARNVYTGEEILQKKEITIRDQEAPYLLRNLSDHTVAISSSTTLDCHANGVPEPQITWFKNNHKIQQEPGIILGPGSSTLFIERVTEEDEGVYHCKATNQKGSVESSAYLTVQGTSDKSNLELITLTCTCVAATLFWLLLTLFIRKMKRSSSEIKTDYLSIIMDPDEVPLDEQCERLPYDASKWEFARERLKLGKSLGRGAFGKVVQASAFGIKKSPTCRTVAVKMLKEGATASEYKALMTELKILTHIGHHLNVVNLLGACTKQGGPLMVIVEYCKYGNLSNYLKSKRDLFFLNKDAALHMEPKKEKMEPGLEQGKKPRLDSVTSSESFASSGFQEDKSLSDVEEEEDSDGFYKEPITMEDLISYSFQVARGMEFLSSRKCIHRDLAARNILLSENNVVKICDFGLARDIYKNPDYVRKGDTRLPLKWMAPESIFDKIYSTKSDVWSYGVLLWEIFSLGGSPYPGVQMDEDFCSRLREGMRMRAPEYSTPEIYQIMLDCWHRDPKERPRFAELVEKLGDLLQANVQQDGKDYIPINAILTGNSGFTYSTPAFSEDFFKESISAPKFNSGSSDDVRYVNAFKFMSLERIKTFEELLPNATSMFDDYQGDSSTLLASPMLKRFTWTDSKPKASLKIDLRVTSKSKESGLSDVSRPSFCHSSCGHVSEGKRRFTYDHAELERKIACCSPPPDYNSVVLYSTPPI
Method: as §2, §3

O=C1Nc2ccccc2/C1=C\c1ccc2c(/C=C/c3ccncc3)n[nH]c2c1 [Example A57, (E)-3-((3-((E)-2-(pyridin-4-yl)vinyl)-1H-indazol-6-yl)methylene)-indolin-2-one]
IC50 (Aurora B): < 5 µM
IC50 (Abl): < 5 µM
IC50 (TRKA): < 5 µM
IC50 (Ret): < 5 µM
IC50 (Lyn): < 5 µM
IC50 (Aurora A): < 5 µM
inhibition at 10 µM (PLK2): > 50%
Inhibition of HUV-EC-C Cell Tube Formation (percentage of the control tube count) (HUV-EC-C cells): anti-agiogenic effects at micromolar concentrations; also recorded: inhibition of HUV-EC-C Cell Tube Formation
IC50 (human PLK4): < 5 µM
IC50 (KDR): < 5 µM
IC50 (PDGFRβ): < 5 µM
IC50 (FGFR1): < 5 µM
IC50 (FLT-1): < 5 µM
